Molecular target: T1, CYP26 (Mus musculus, UniProt O55127)
T1 construct: tissue Xenotech; host or cells: liver microsomes of ATRA-treated mice
T1 sequence (O55127 1-497): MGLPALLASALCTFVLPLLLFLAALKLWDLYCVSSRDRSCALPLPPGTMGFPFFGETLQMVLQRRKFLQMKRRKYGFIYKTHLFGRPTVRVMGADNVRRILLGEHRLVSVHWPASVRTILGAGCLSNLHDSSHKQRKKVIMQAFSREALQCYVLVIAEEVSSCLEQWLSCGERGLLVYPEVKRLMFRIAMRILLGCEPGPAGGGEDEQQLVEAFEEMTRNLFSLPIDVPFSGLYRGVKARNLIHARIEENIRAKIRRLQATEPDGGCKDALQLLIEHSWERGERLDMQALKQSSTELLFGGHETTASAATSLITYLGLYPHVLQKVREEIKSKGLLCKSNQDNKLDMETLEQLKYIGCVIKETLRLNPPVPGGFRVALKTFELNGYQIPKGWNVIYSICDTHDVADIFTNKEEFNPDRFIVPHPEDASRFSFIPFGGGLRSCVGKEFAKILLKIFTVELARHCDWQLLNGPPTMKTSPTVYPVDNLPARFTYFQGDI
Assay: CYP26 inhibition: substrate depletion assay for ATRA metabolism in mouse microsomes
Assay type: biochemical
Description: Serum Testosterone and PSA and Tumor Testosterone Analysis. Tumor tissue obtained from mice will be homogenized in phosphate buffer (pH 7.4, 0.1 M) and homogenates centrifuged at 2000 g for 20 min. Testosterone concentrations in the serum and in the clear tissue homogenate supernatant will be determined with the ELISA kit from R&D Systems (Catalog # KGR010). Serum PSA concentrations will be measured using a PSA ELISA kit with a serum dilution according to the manufacturers instructions. • c. Breast cancer. To test the efficacy of compounds embodied herein against breast cancer, nude mice carrying human breast cancer lines that are estrogen receptor and Aromatase positive will be used. Cells will be grown in vitro and 2 million will be inoculated in Matrigel (50:50 volume ratio of cells to Matrigel). Cells will be distributed by s.c. injection at the right and left flanks or at the orthotopic sitest in 6 to 8 week old athymic nude mice (BALB/c strain) or severe combined immunodeficient mice under anesthesia. Animals will be treated with compound for 4 weeks, at which point animals will be sacrificed and collect blood samples and tumor tissue for the determination of serum and tumor estrogen levels. Tumors will be excised and a portion will be fixed in formalin for subsequent histochemical and immuno-histochemical analysis. The remainder will be snap frozen in liquid nitrogen and stored at −80° C. • 12. CYP26 inhibition activity. A substrate depletion assay for ATRA metabolism in mouse microsomes is used. […] The assay is run in a 100 μL reaction volume and stopped with an equal volume of methanol. […] CYP17 inhibition assay: In vitro assays for CYP17 17α-hydroxylase and C17,20-lyase activity, assays using rat and dog testis microsomes and ELISA kits from commercial vendors for the detection of formed products are employed. Incubation of rat testis microsomes with the substrate progesterone (P4) results, through the CYP17 17α-hydroxylase and C17,20-lyase activities, in a marked production of androstenedione (AD) in a time and enzyme-concentration dependent manner. […] In another control, microsomes isolated from rat livers, which are known to express very little or no CYP17, are shown to be devoid of this activity. Assays are also used that determine the activity of 17α-hydroxylase activity using P4 as a substrate and detecting HOP4 as a product (using dog testis microsomes) and the activity of C17,20-lyase by using HOP4 as a substrate and AD as a product (rat testis microsomes). • 14. CYP19 inhibition assay: For in vitro assays of CYP19 aromatase activity, commercially available CYP19 enzyme preparations (e.g. BD Gentest Supersomes Catalog #456260) and assay kits (e.g. BD Gentest Catalog #459520) are employed according to the manufacturers instructions.
CYP26 inhibition. […] The assay was run in a 100 μL reaction volume and stopped with an equal volume of methanol. […] Other compounds of formula (I) are similarly potent, for example with an IC50 of 1.6 nM.

SMILES	IC50 [nM]
CCC(C(c1ccc2nc(NC(=O)c3ccc(C(=O)O)cc3)sc2c1)n1ccnc1)N(C)C (stereo not drawn) [Example 22, 4-((6-(2-(dimethylamino)-1-(1H-imidazol-1-yl)butyl)benzo[d]thiazol-2-yl)carbamoyl)benzoic acid]	< 1000
CCC(C(c1ccc2nc(NC(=O)CC(C)(C)C(=O)O)sc2c1)n1ccnc1)N(C)C (stereo not drawn) [Example 20, 4-((6-(-2-(dimethylamino)-1-(1H-imidazol-1-yl)butyl)benzo[d]thiazol-2-yl)amino)-2,2-dimethyl-4-oxobutanoic acid]	< 1000
CCC(C(c1ccc2nc(-c3ccc(-c4nn[nH]n4)cc3)sc2c1)n1ccnc1)N(C)C (stereo not drawn) [Example 72, 1-(2-(4-(2H-Tetrazol-5-yl)phenyl)benzo[d]thiazol-6-yl)-1-(1H-imidazol-1-yl)-N,N-dimethylbutan-2-amine]	< 1000
CCC(C(c1ccc2nc(NC(=O)C3(C(=O)O)CCCCC3)sc2c1)n1ccnc1)N(C)C (stereo not drawn) [Example 45, 1-((6-(2-(Dimethylamino)-1-(1H-imidazol-1-yl)butyl)benzo[d]thiazol-2-yl)carbamoyl)cyclohexanecarboxylic acid]	< 1000
CCC(C(c1ccc2nc(NCc3ccc(C(=O)O)cc3)sc2c1)n1ccnc1)N(C)C (stereo not drawn) [Example 35, 4-(((6-(2-(Dimethylamino)-1-(1H-imidazol-1-yl)butyl)benzo[d]thiazol-2-yl)amino)methyl)benzoic acid]	< 1000
CCC(CC)C(c1ccc2nc(-c3ccc(Cl)c(C(=O)O)c3)sc2c1)n1ccnc1 (stereo not drawn) [Example 74, 2-Chloro-5-(6-(2-ethyl-1-(1H-imidazol-1-yl)butyl)benzo[d]thiazol-2-yl)benzoic acid]	< 1000
CCC(CC)C(c1ccc2nc(-c3ccc(C(=O)OC)cc3)sc2c1)n1ccnc1 (stereo not drawn) [Example 29, Methyl 4-(6-(2-ethyl-1-(1H-imidazol-1-yl)butyl)benzo[d]thiazol-2-yl)benzoate]	< 1000
CCC(C(c1ccc2nc(NC(=O)CCC(C)(C)C(=O)O)sc2c1)n1ccnc1)N(C)C (stereo not drawn) [Example 49, 5-((6-(-2-(Dimethylamino)-1-(1H-imidazol-1-yl)butyl)benzo[d]thiazol-2-yl)amino)-2,2-dimethyl-5-oxopentanoic acid]	< 1000
CCC(C(c1ccc2nc(NCC(C)(C)C(=O)O)sc2c1)n1ccnc1)N(C)C (stereo not drawn) [Example 19, 3-((6-(2-(Dimethylamino)-1-(1H-imidazol-1-yl)butyl)benzo[d]thiazol-2-yl)amino)-2,2-dimethylpropanoic acid]	< 1000
CCC(C(c1ccc2nc(NC(=O)C3(C(=O)O)CCCC3)sc2c1)n1ccnc1)N(C)C (stereo not drawn) [Example 47, 1-((6-(2-(Dimethylamino)-1-(1H-imidazol-1-yl)butyl)benzo[d]thiazol-2-yl)carbamoyl)cyclopentanecarboxylic acid]	< 1000
CCC(C(c1ccc2nc(NC(=O)C3(C(=O)O)CCC3)sc2c1)n1ccnc1)N(C)C (stereo not drawn) [Example 43, 1-((6-(2-(Dimethylamino)-1-(1H-imidazol-1-yl)butyl)benzo[d]thiazol-2-yl)carbamoyl)cyclobutanecarboxylic acid]	< 1000

Results, then the compound that gave them:

IC50 [nM]	SMILES
< 1000	CCC(C(c1ccc2nc(-c3ccc(C(=O)O)cc3)sc2c1)n1ccnc1)N(C)C (stereo not drawn) [Example 26, 4-(6-(2-(Dimethylamino)-1-(1H-imidazol-1-yl)butyl)benzo[d]thiazol-2-yl)benzoic acid]
< 1000	CCC(C(c1ccc2nc(Nc3cccc(C(=O)O)c3)sc2c1)n1ccnc1)N(C)C (stereo not drawn) [Example 39, 3-((6-(2-(dimethylamino)-1-(1H-imidazol-1-yl)butyl)benzo[d]thiazol-2-yl)amino)benzoic acid]
< 1000	CCC(C(c1ccc2nc(-c3cc(C(=O)O)cc(C(F)(F)F)c3)sc2c1)n1ccnc1)N(C)C (stereo not drawn) [Example 70, 3-(6-(2-(Dimethylamino)-1-(1H-imidazol-1-yl)butyl)benzo[d]thiazol-2-yl)-5-(trifluoromethyl)benzoic acid]
< 1000	CCC(C(c1ccc2nc(-c3ccc(Cl)c(C(=O)O)c3)sc2c1)n1ccnc1)N(C)C (stereo not drawn) [Example 64, 2-Chloro-5-(6-(2-(dimethylamino)-1-(1H-imidazol-1-yl)butyl)benzo[d]thiazol-2-yl)benzoic acid]
< 1000	CCC(C(c1ccc2nc(-c3ccc(C(=O)O)cc3)sc2c1)n1ccnc1)N(C)CC (stereo not drawn) [Example 58, 4-(6-(2-(Ethyl(methyl)amino)-1-(1H-imidazol-1-yl)butyl)benzo[d]thiazol-2-yl)benzoic acid]
< 1000	CCC(C(c1ccc2nc(-c3ccc(F)c(C(=O)O)c3)sc2c1)n1ccnc1)N(C)C (stereo not drawn) [Example 66, 5-(6-(2-(Dimethylamino)-1-(1H-imidazol-1-yl)butyl)benzo[d]thiazol-2-yl)-2-fluorobenzoic acid]
< 1000	CCC(C(c1ccc2nc(-c3ccc(C(=O)OC)cc3)sc2c1)n1ccnc1)N(C)C (stereo not drawn) [Example 25, Methyl 4-(6-(2-(dimethylamino)-1-(1H-imidazol-1-yl)butyl)benzo[d]thiazol-2-yl)benzoate]
< 1000	CCC(C(c1ccc2nc(NC(=O)c3cccc(C(=O)O)c3)sc2c1)n1ccnc1)N(C)C (stereo not drawn) [Example 41, 3-((6-(2-(dimethylamino)-1-(1H-imidazol-1-yl)butyl)benzo[d]thiazol-2-yl)carbamoyl)benzoic acid]
< 1000	CCC(C(c1ccc2nc(NCc3cccc(C(=O)O)c3)sc2c1)n1ccnc1)N(C)C (stereo not drawn) [Example 7, 3-(((6-(2-(Dimethylamino)-1-(1H-imidazol-1-yl)butyl)benzo[d]thiazol-2-yl)amino)methyl)benzoic acid]
< 1000	CCC(C(c1ccc2nc(Oc3cccc(C(=O)O)c3)sc2c1)n1ccnc1)N(C)C (stereo not drawn) [Example 54, 3-((6-(2-(Dimethylamino)-1-(1H-imidazol-1-yl)butyl)benzo[d]thiazol-2-yl)oxy)benzoic acid]
< 1000	CCC(C(c1ccc2nc(-c3cccc(C(=O)O)c3)sc2c1)n1ccnc1)N(C)CC (stereo not drawn) [Example 60, 3-(6-(2-(Ethyl(methyl)amino)-1-(1H-imidazol-1-yl)butyl)benzo[d]thiazol-2-yl)benzoic acid]
< 1000	CCC(C(c1ccc2nc(Nc3ccc(C(=O)O)cc3)sc2c1)n1ccnc1)N(C)C (stereo not drawn) [Example 17, 4-((6-(2-(Dimethylamino)-1-(1H-imidazol-1-yl)butyl)benzo[d]thiazol-2-yl)amino)benzoic acid]
< 1000	CCC(C(c1ccc2nc(-c3cccc(C(=O)O)c3)sc2c1)n1ccnc1)N(C)C (stereo not drawn) [Example 56, 3-(6-(2-(Dimethylamino)-1-(1H-imidazol-1-yl)butyl)benzo[d]thiazol-2-yl)benzoic acid]
< 1000	CCC(C(c1ccc2nc(Oc3ccc(C(=O)O)cc3)sc2c1)n1ccnc1)N(C)C (stereo not drawn) [Example 24, 4-((6-(2-(Dimethylamino)-1-(1H-imidazol-1-yl)butyl)benzo[d]thiazol-2-yl)oxy)benzoic acid]
< 1000	CCC(C(c1ccc2nc(-c3cc(F)cc(C(=O)O)c3)sc2c1)n1ccnc1)N(C)C (stereo not drawn) [Example 68, 3-(6-(2-(Dimethylamino)-1-(1H-imidazol-1-yl)butyl)benzo[d]thiazol-2-yl)-5-fluorobenzoicacid]
< 1000	CCC(C(c1ccc2nc(-c3ccc(C(=O)O)c(Cl)c3)sc2c1)n1ccnc1)N(C)C (stereo not drawn) [Example 62, 2-Chloro-4-(6-(2-(dimethylamino)-1-(1H-imidazol-1-yl)butyl)benzo[d]thiazol-2-yl)benzoic acid]

— patent publication US10414760B2, “Cytochrome P450 inhibitors and uses thereof” (ANGION BIOMEDICA CORP., priority 2016, dated 2019)
